Among the data in patent US10654834B2 (Venenum Biodesign, LLC, priority 2016, dated 2020) are EC50 values, retold here.

Counter-ions that a name gives are not always drawn.

For one assay, the target named is T1, mouse TGR5 receptor (Mus musculus, UniProt Q80SS6).
T1 construct: host or cells: HEK293-EBNA (293 c18, ATCC CRL10852)
T1 sequence (Q80SS6 1-329): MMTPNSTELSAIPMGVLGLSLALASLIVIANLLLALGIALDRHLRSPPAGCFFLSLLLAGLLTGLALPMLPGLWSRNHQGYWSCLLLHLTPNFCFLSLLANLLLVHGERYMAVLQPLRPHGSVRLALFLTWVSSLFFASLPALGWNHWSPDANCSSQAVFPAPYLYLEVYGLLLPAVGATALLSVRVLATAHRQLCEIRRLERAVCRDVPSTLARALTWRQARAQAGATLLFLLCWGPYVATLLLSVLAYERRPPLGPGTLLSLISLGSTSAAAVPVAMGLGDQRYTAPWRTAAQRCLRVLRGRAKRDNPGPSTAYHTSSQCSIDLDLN
The assay is described as follows: Mouse TGR5 HTRF cAMP production assay (HEK293-EBNA cells, Cisbio cAMP HiRange kit). Particulars: HEK293-EBNA cells overexpressing mouse TGR5, HTRF cAMP assay. The format is cell-based. A digest of the protocol:
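HEK293-EBNA cells stably expressing mouse TGR5 (episomal vector) were suspended in serum-free DMEM with 500 μM IBMX and exposed to 12-point half-log compound dilutions for 1 h at room temperature. cAMP was detected by HTRF (d2-cAMP/anti-cAMP cryptate, 1 h, room temperature), giving EC50 from duplicates.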

The next assay has as its target T2, human TGR5 receptor (Homo sapiens, UniProt Q8TDU6).
T2 construct: host or cells: CHO-K1 (hTGR5-CHO)
T2 sequence (Q8TDU6 1-330): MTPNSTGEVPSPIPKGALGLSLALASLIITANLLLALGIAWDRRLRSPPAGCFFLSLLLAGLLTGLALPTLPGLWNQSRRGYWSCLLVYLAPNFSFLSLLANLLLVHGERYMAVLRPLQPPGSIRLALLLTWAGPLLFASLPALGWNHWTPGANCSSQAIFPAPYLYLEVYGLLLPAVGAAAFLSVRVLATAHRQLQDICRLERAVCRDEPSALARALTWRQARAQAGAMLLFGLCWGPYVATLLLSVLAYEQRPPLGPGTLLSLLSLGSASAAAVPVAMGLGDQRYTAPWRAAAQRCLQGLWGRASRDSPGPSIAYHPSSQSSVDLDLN
Kind of assay: Human TGR5 cAMP production assay (hTGR5-CHO cells, DiscoveRx cAMP XS+ kit). The assay is classed as cell-based. Particulars: luminescent cAMP assay, read-out: Human TGR5 Lum. cAMP Activity (EC50). An outline of the steps:
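CHO-K1 cells stably expressing hTGR5, in PBS with IBMX and cAMP antibody, treated with half-log compound dilutions for 1 h at room temperature. cAMP measured by enzyme-fragment complementation luminescence after overnight detection; EC50 values reported.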

On to `O=C(O)CCNC(=O)NCCC1CCN(c2cc(N3C[C@@H](O)C[C@H]3C(=O)NCCc3ccc(C(F)(F)F)cc3)nc(C(F)(F)F)n2)CC1` [Compound 374, 3-(3-(2-(1-(6-((2S,4S)-4-hydroxy-2-((4-(trifluoromethyl)phenethyl)carbamoyl)pyrrolidin-1-yl)-2-(trifluoromethyl)pyrimidin-4-yl)piperidin-4-yl)ethyl)ureido)propanoic acid], for which the EC50 at mouse TGR5 receptor and at human TGR5 receptor was < 0.1 µM in each case.
Regarding `CN(CCS(=O)(=O)O)C(=O)CCC1CCN(c2cc(N3CC[C@H]3C(=O)NCCc3ccc(C(F)(F)F)cc3)nc(C(F)(F)F)n2)CC1` [Compound 252, (S)-2-(N-methyl-3-(1-(2-(trifluoromethyl)-6-(2-((4-(trifluoromethyl)phenethyl)carbamoyl)azetidin-1-yl)pyrimidin-4-yl)piperidin-4-yl)propanamido)ethanesulfonic acid], the EC50 at mouse TGR5 receptor and on human TGR5 receptor was < 0.1 µM throughout.
Regarding `N#Cc1ccc(CCNC(=O)[C@@H]2CCN2c2cc(N3CCC(CCN)CC3)nc(C(F)(F)F)n2)cc1` [Compound 246, (S)-1-(6-(4-(2-aminoethyl)piperidin-1-yl)-2-(trifluoromethyl)pyrimidin-4-yl)-N-(4-cyanophenethyl)azetidine-2-carboxamide], the EC50 at mouse TGR5 receptor and at human TGR5 receptor was < 0.1 µM in each case.
Consider `N#Cc1ccc(CCNC(=O)[C@@H]2CCCN2c2cc(N3CCC(CC(=O)O)CC3)nc(C(F)(F)F)n2)cc1` [Compound 27], for which the EC50 on mouse TGR5 receptor is < 0.1 µM; at human TGR5 receptor it was 0.1 to 0.999 µM.
As to `N#Cc1ccc(CCNC(=O)[C@@H]2CC(F)(F)CN2c2cc(N3CCC(CCNC(=O)NCCS(=O)(=O)O)CC3)nc(C(F)(F)F)n2)cc1` [Compound 216, (S)-2-(3-(2-(1-(6-(2-((4-cyanophenethyl)carbamoyl)-4,4-difluoropyrrolidin-1-yl)-2-(trifluoromethyl)pyrimidin-4-yl)piperidin-4-yl)ethyl)ureido)ethanesulfonic acid], the EC50 at mouse TGR5 receptor and at human TGR5 receptor was 0.1 to 0.999 µM in each case.
With `O=C(O)CCCC1CCN(c2cc(N3CC[C@H]3C(=O)NCCc3ccc(C(F)(F)F)cc3)nc(C(F)(F)F)n2)CC1` [Compound 233, (S)-4-(1-(2-(trifluoromethyl)-6-(2-((4-(trifluoromethyl)phenethyl)carbamoyl)azetidin-1-yl)pyrimidin-4-yl)piperidin-4-yl)butanoic acid], the EC50 at mouse TGR5 receptor and on human TGR5 receptor was < 0.1 µM throughout.
Regarding `N#Cc1ccc(CCNC(=O)[C@@H]2CCCN2c2cc(-c3ccc(CNC(=O)NCCCS(=O)(=O)O)cc3)nc(C(F)(F)F)n2)cc1` [Compound 193, (S)-3-(3-(4-(6-(2-((4-cyanophenethyl)carbamoyl)pyrrolidin-1-yl)-2-(trifluoromethyl)pyrimidin-4-yl)benzyl)ureido)propane-1-sulfonic acid], the results for the EC50 at mouse TGR5 receptor and on human TGR5 receptor were < 0.1 µM and 0.1 to 0.999 µM, respectively.
Consider `O=C(CCCC1CCN(c2cc(N3CCC[C@H]3C(=O)NCCc3cccc(-c4ccncc4)c3)nc(C(F)(F)F)n2)CC1)NCS(=O)(=O)O` [Compound 354, (S)-(4-(1-(6-(2-((3-(pyridin-4-yl)phenethyl)carbamoyl)pyrrolidin-1-yl)-2-(trifluoromethyl)pyrimidin-4-yl)piperidin-4-yl)butanamido)methanesulfonic acid], for which the EC50 on mouse TGR5 receptor was 0.1 to 0.999 µM; on human TGR5 receptor, 1 to 30 µM.
The like results for `N#Cc1ccc(CCNC(=O)[C@@H]2CCCN2c2cc(N3CCC(CCN4C(=O)N[C@@H](CS(=O)(=O)O)C4=O)CC3)nc(C(F)(F)F)n2)cc1` [Compound 122, ((R)-1-(2-(1-(6-((S)-2-((4-cyanophenethyl)carbamoyl)pyrrolidin-1-yl)-2-(trifluoromethyl)pyrimidin-4-yl)piperidin-4-yl)ethyl)-2,5-dioxoimidazolidin-4-yl)methanesulfonic acid] were, in that order, < 0.1 µM and < 0.1 µM.
The like results for `NCCNC(=O)CCCC1CCN(c2cc(N3CCC[C@H]3C(=O)NCCc3ccc(C(F)(F)F)cc3)nc(C(F)(F)F)n2)CC1` [Compound 90, (S)-1-(6-(4-(4-((2-aminoethyl)amino)-4-oxobutyl)piperidin-1-yl)-2-(trifluoromethyl)pyrimidin-4-yl)-N-(4-(trifluoromethyl)phenethyl)pyrrolidine-2-carboxamide hydrochloride] were, in that order, < 0.1 µM and < 0.1 µM.
With `N#Cc1ccc(CCNC(=O)[C@@H]2CCCN2c2cc(-c3cccc(CCC(=O)NCCS(=O)(=O)O)c3)nc(C(F)(F)F)n2)cc1` [Compound 190, (S)-2-(3-(3-(6-(2-((4-cyanophenethyl)-carbamoyl)pyrrolidin-1-yl)-2-(trifluoromethyl)pyrimidin-4-yl)phenyl)-propanamido)ethanesulfonic acid], the EC50 is < 0.1 µM on mouse TGR5 receptor and 1 to 30 µM at human TGR5 receptor.
For `N=C(N)N1CCC(C2CCN(c3cc(N4CC[C@H]4C(=O)NCCc4ccc(C(F)(F)F)cc4)nc(C(F)(F)F)n3)CC2)CC1` [Compound 289, (S)-1-(6-(1′-carbamimidoyl-[4,4′-bipiperidin]-1-yl)-2-(trifluoromethyl)pyrimidin-4-yl)-N-(4-(trifluoromethyl)phenethyl)-azetidine-2-carboxamide] the same measures were < 0.1 µM and < 0.1 µM.
`CN(C)[C@@H]1C[C@@H](C(=O)NCCc2ccc(C(F)(F)F)cc2)N(c2cc(N3CCC(CCNC(=O)NCCC(=O)O)CC3)nc(C(F)(F)F)n2)C1` [Compound 352, 3-(3-(2-(1-(6-((2S,4R)-4-(dimethylamino)-2-((4-(trifluoromethyl)phenethyl)carbamoyl)pyrrolidin-1-yl)-2-(trifluoromethyl)pyrimidin-4-yl)piperidin-4-yl)ethyl)ureido)propanoic acid]: the EC50 on mouse TGR5 receptor and on human TGR5 receptor was 1 to 30 µM in each case.
As for `N#Cc1ccc(CCNC(=O)[C@@H]2CCCN2c2cc(N3CCC(CCCC(=O)N[C@H](CCCNC(=N)N)C(=O)N[C@H](CCC(=O)O)C(=O)O)CC3)nc(C(F)(F)F)n2)cc1` [Compound 203, (R)-2-((R)-2-(4-(1-(6-((S)-2-((4-cyanophenethyl)carbamoyl)pyrrolidin-1-yl)-2-(trifluoromethyl)pyrimidin-4-yl)piperidin-4-yl)butanamido)-5-guanidino-pentanamido)pentanedioic acid], the EC50 on mouse TGR5 receptor and on human TGR5 receptor was < 0.1 µM in each case.
For the compound `COC(=O)[C@@H](N)CCCCNC(=O)NCCC1CCN(c2cc(N3CC[C@H]3C(=O)NCCc3ccc(C#N)cc3)nc(C(F)(F)F)n2)CC1` [Compound 274, (S)-methyl 2-amino-6-(3-(2-(1-(6-((S)-2-((4-cyanophenethyl)carbamoyl)azetidin-1-yl)-2-(trifluoromethyl)pyrimidin-4-yl)piperidin-4-yl)ethyl)ureido)hexanoate], the EC50 at mouse TGR5 receptor and on human TGR5 receptor was < 0.1 µM throughout.
For `N#Cc1ccc(CCNC(=O)[C@@H]2CCCN2c2cc(-c3ccc(CCC(=O)O)cc3)cc(C(F)(F)F)n2)cc1` [Compound 205, (S)-3-(4-(2-(2-((4-cyanophenethyl)carbamoyl)pyrrolidin-1-yl)-6-(trifluoromethyl)pyridin-4-yl)phenyl)propanoic acid], the EC50 at mouse TGR5 receptor and on human TGR5 receptor was < 0.1 µM throughout.
